Experimental data taken from patent US7138433B2, “Quinone-based therapeutic agent for hepatopathy” (Eisai Co., Ltd., priority 2002, dated 2006).

Tests used:
[1] = cited from earlier work
[2] = tested on: DCP positive hepatic cancer patients; experiment: Trial Example 1: randomized prospective controlled clinical trial of oral VK-II after hepatic cancer treatment; assay type: in vivo, human; conditions: treated group
Procedure: A clinical trial (randomized prospective controlled study) was carried out as follows.
Out of patients with hepatocellular carcinoma, ones having a serum DCP level above 60 IU/L (DCP positive hepatic cancer) were included in the trial. On the other hand, patients having portal venous invasion, and patients in which there was already VK metabolism through administration of VK or an anti-VK agent, were excluded from the trial.
126 hepatic cancer patients were given treatment from February 1999 to November 2001. As the hepatic cancer treatment, percutaneous cauterization therapy (RFA and/or PEIT) for HCC, treatment via the blood vessels (TAE or TAI), or surgical excision was carried out. Of the patients, 5 were excluded from the present trial.
Next, the remaining 121 patients were randomly divided into a treated group (n=60) and an untreated group (n=61). The treated group were orally administered 45 mg/day of VK-II (proprietary name Glakay, made by Eisai Co., Ltd.) after the hepatic cancer treatment, while the untreated group were not administered VK-II.
Follow-up tests were carried out after the hepatic cancer treatment. As the follow-up tests, ultrasonography (abdominal echography) was carried out every 3 months, a CT scan was carried out every 6 months, and the levels of the tumor markers alpha-fetoprotein and DCP were measured every one month.
Statistical analysis was carried out on the PVI incidence rate and the survival rate for the two groups. That is, calculations were carried out using the Cox proportional hazard model, and a test was carried out using the log-rank method. The average observation period was 12±8 months.

[3] = tested on: hepatocellular carcinoma patients after treatment; experiment: Trial Example 2: trial of VK-II in inhibiting recurrence of hepatocellular carcinoma after treatment; assay type: in vivo, human; conditions: for risk ratio for recurrence of hepatic cancer: Cox proportional hazard model, control group = 1; for time period until 50% recurrence: control group 10 months
Procedure: A trial was carried out as follows with an objective of investigating the effect and safety of VK-II in inhibiting recurrence of hepatocellular carcinoma after treatment. 61 cases in which hepatocellular carcinoma was diagnosed and then after treatment therefor necrosis (or curative excision) was judged by contrast CT to have completely occurred were entered from March 1999 to March 2001, the entered cases were divided into two groups, namely a VK-II-administered group for which the end of the patient ID number was an odd number and a non-administered group (control group) for which the end of the patient ID number was an even number, and a VK-II preparation (proprietary name […], made by Eisai Co., Ltd.) was orally administered at a dose of 45 mg/day to the administered group. Contrast CT or MRI was carried out every 3 months, and a statistical analysis of the time period until recurrence was carried out. Specifically, comparison was carried out using the Kaplan-Meier method (log-rank test), and the risk ratio for recurrence was analyzed using the Cox proportional hazard model.

[4] = tested on: DCP-producing HCC cell line; conditions: in vitro; Hepatology 1995, 22:876-82; cited from earlier work
MMP-1 = experiment: MMP protein expression in hepatic cancer cells, Western blot; assay type: cell-based; conditions: VK-II added to hepatic cancer cells
Text: (§1) The action of VK-II according to the present application with regard to invasion/metastasis of hepatic cancer cells was studied in vitro. The action on invasion ability was investigated through an invasion assay using HepG2 cells and a Matrigel chamber. […] Regarding the action on the metastasis ability, the action of VK-II on the expression of extracellular matrix metalloproteinases (MMPs) was investigated using the Western blot method. […] From the above, although the data is in vitro, it can be presumed that VK-II inhibits invasion/metastasis of hepatic cancer cells.

MMP-3 = experiment: as above; assay type: cell-based; conditions: VK-II added to hepatic cancer cells
Text: as §1

HepG2 cells = experiment: Invasion assay using HepG2 cells and a Matrigel chamber; assay type: cell-based; conditions: upon adding VK-II; depending on the concentration
Text: as §1

SMILES: CC(C)=CCC/C(C)=C/CC/C(C)=C/CC/C(C)=C/CC1=C(C)C(=O)c2ccccc2C1=O [VK-II, 2-methyl-3-tetraprenyl-1,4-naphthoquinone]
- solubility in water [1]: hardly dissolves in water
- PVI incidence rate ([2]; after 1 year, 45 mg/day oral, untreated group 23%): 2%
- survival rate ([2]; after 2 years, 45 mg/day oral, untreated group 28% (P=0.044)): 66%
- PVI incidence rate ([2]; after 2 years, 45 mg/day oral, untreated group 47% (P=0.018)): 23%
- DCP level in the serum after hepatic cancer treatment ([2]; 45 mg/day oral VK-II (Glakay), for 12 months, untreated group gradually increased): remained approximately constant
- side effects ([3]; 45 mg/day oral): no side effects
- risk ratio for recurrence of hepatic cancer ([3]; HCV cases only): 0.210
- risk ratio for recurrence of hepatic cancer ([3]; all cases): 0.329
- time period until 50% recurrence ([3]; HCV cases only): 26 months
- 1-year cumulative recurrence rate ([3]; HCV cases only, control group 61.5%): 7.1%
- 2-year cumulative recurrence rate ([3]; HCV cases only, control group 87.2%): 37.8%
- DCP upon recurrence ([3]; all cases of recurrence in the VK-II-administered group): negative
- 1-year cumulative recurrence rate ([3]; all cases, 45 mg/day oral, control group 55.2%): 12.5%
- 2-year cumulative recurrence rate ([3]; all cases, 45 mg/day oral, control group 85.5%): 39.6%
- time period until 50% recurrence ([3]; all cases): 26 months
- hepatic cancer cumulative recurrence rate compared with the control group ([3]; excluding cases of local recurrence (29 vs 22 cases)): statistically significantly suppressed
- hepatic cancer cumulative recurrence rate compared with the control group ([3]; excluding cases of recurrence within 6 months (31 vs 22 cases)): statistically significantly suppressed
- cell proliferation [4]: inhibited
- MMP-1 protein expression (MMP-1): inhibited
- MMP-3 protein expression (MMP-3): inhibited
- number of cells passing through the Matrigel (HepG2 cells): dropped
